The compounds below were run against T1, 5-hydroxytryptamine receptor 1A (Homo sapiens, UniProt P08908) (assay: serotonin 1A receptor activation, dose response (AID 718)). Settings: pH 7.4; 23 °C.
T1 sequence (P08908 whole entry): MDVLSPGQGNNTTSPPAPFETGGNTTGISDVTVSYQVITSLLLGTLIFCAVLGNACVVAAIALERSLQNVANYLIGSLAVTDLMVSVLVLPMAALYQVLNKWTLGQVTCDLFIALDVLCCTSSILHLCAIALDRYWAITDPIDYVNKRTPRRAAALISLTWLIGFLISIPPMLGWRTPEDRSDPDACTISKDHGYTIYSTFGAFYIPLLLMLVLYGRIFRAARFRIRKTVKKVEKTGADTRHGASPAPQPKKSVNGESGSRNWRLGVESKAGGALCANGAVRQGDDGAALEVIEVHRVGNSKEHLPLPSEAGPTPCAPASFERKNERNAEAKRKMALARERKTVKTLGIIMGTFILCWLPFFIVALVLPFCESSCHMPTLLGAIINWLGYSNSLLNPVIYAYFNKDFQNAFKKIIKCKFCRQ

EC50, 50 µM:
CN1CCN(C(N=O)c2nonc2N)CC1 (stereo not drawn), Cn1cc(C(Cc2ccccc2)N=O)c2ccccc21 (stereo not drawn) [1-(1-methyl-3-indolyl)-2-phenylethanone oxime], CCOC(=O)C1C(C)=NC(=O)NC1c1ccc(OCC(=O)Nc2ccccc2)c(OC)c1 (stereo not drawn) [SMR000093032]

From BindingDB's records for doi:10.7270/Q2WW7G03 (The Scripps Research Institute Molecular Screening Center, 2007)
